From US10308671B2, “Water-soluble derivatives of 3,5-diphenyl-diazole compounds” (Max-Planck-Gesellschaft zur Förderung, priority 2015, dated 2019) come the findings set out here.

≈ marks a conversion by molar mass, not a printed value. Read-outs that look alike come from different tables or passages of the source.

One data set is described as follows: Solubility in water. The conditions noted are these: for solubility: water. The format is physicochemical.
Data set [1] is described as follows: Water-solubility test (visual inspection). Type of data set: physicochemical. Here is the method: The solubility of each compound in the water was evaluated by following protocol. Deionized water (1 ml) was added into glass tube containing 10 mg of compound. After shaking for 10 minutes the sample was visually inspected and formation of solution or suspension was documented.

Data set [2] is described as follows: Pharmacokinetics in rats after single oral dose: anle138b in PEG/Cremophor (Phase 1) vs sery433 in aqueous buffer (Phase 2). Type of data set: in vivo, male Sprague Dawley rats. The conditions noted are these: anle138b combined with excipients based on PEG/cremophor. Here is the method:
In the experiment, a single oral dose of anle138b in PEG/Cremophor (“Phase 1”) and sery433 in aqueous solution (“Phase 2”) at a nominal dose of 10 mg/kg were administered to male Sprague Dawley Rats. The experiments were conducted with three rats which are identified as “1M”, “2M” and “3M”.
This study was designed to assess the pharmacokinetics of anle138b and sery433 in male Sprague Dawley rats following single oral administration of anle138b (Phase 1) and sery433 (Phase 2). During Phase 1 and Phase 2 animals received each test compound, appropriately formulated, on one of two separate dose occasions in a cross over design. The dose level was 10 mg/kg for both compounds. The amount of sery433 was not corrected to the amount of anle138b which is present in the prodrug, so that due to the higher molecular weight of sery433 actually a lower amount of active agent was administered.
Phase 1: three naïve male CD rats were dosed orally with anle138b at a target dose level of 10 mg/kg.
Phase 2: one week later (wash out period), sery433 at a target dose of 10 mg/kg was administered orally to the same animals.
During each phase an individual serial plasma profile was drawn from each animal over a period of 24 hours after dosing.
The vehicle was prepared by weighing Cremophor RH40 (45% of final volume); PEG400 (35% of final volume) and Capryol 90 (20% of final volume). […]

Take `CN(C)c1ccc(-c2cc(-c3cccc(Br)c3)[nH]n2)cc1` [Anle253b, 5-(3-Bromophenyl)-3-(4-dimethylaminophenyl)-1H-pyrazole]: the “solubility (in words)” value in “Solubility in water” is listed as “even less soluble than anle138b”.

For the compound `Brc1cccc(-c2cc(-c3ccc4c(c3)OCO4)n[nH]2)c1` [anle138b, 5-(3-Bromophenyl)-3-(3,4-methylenedioxyphenyl)-1H-pyrazole], the solubility in “Solubility in water” (read-out: solubility in water) turned out to be 0.2 µM; in the data set “Solubility in water” (restates 0.2 μM, read-out: water-solubility), 0.07 µg/mL. In addition, the “Result of solubility test” value in data set [1] (10 mg compound in 1 ml deionized water, shaking 10 minutes, visual inspection) is “insoluble”. Further, in data set [1] (deionized water, water, thermodynamic from solid, read-out: amount soluble in water), the solubility at 10 min was 0.0686 µg/mL (≈ 0.2 µM). In data set [2], the “anle138b exposure relative to the exposure reached by administration of sery433” value was 25%.
